Some test systems named below: EKVX NSCLC; LOX IMVI melanoma; M14 melanoma; CCRF-CEM leukemia; SNB-75 CNS; SK-MEL-28 melanoma; HOP-62 NSCLC; U251 CNS; SK-MEL-5 melanoma; RPMI-8226 leukemia.
Assay in all cases: NCI anticancer screen, dose series, 48 h

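48-hour exposure; five concentrations; linearly interpolated endpoints. GI50 is the concentration that inhibits growth by half. TGI marks complete inhibition of growth.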 A value given as a limit tells only on which side of the number the result lay.

As to `C=CCc1c(O)c(C(=O)/C=C/c2ccc(Cl)cc2)c(OC)c2ccoc12`, the GI50 was 7.23 µM with EKVX NSCLC; 1.63 µM in the assay with LOX IMVI melanoma; 5.08 µM in the assay with M14 melanoma; 3.33 µM in the assay on CCRF-CEM leukemia; 2.01 µM in the assay on SNB-75 CNS; 2.32 µM in the assay on SK-MEL-28 melanoma. Further, the GI50 in the assay with HOP-62 NSCLC is 2.31 µM; in the assay on U251 CNS, 2.3 µM; in the assay on SK-MEL-5 melanoma, 2.07 µM. Moreover, the TGI in the assay on EKVX NSCLC is 21.5 µM; with LOX IMVI melanoma, 3.08 µM; in the assay with M14 melanoma, 29.2 µM; in the assay on CCRF-CEM leukemia it was greater than 100 µM; with SNB-75 CNS it was 9.11 µM; in the assay on SK-MEL-28 melanoma it was 5.53 µM. The values for the TGI in the assay on HOP-62 NSCLC, in the assay with U251 CNS and in the assay with SK-MEL-5 melanoma were 5.76 µM, 5.87 µM and 5.18 µM, respectively.
For `CC1(C)CC(=O)C(CC2C(=O)CCCC2=O)C(=O)C1`, the TGI in the assay with EKVX NSCLC, in the assay with LOX IMVI melanoma, with M14 melanoma, in the assay with CCRF-CEM leukemia, in the assay on SNB-75 CNS and in the assay with SK-MEL-28 melanoma was greater than 100 µM throughout. In addition, the TGI with HOP-62 NSCLC, in the assay with U251 CNS and in the assay on SK-MEL-5 melanoma was greater than 100 µM throughout.
Consider `O=[N+]([O-])c1ccc2c(c1)C(N1CCN(CCO)CC1)Cc1ccc(F)cc1S2` (stereo unspecified), for which the TGI turned out to be 24.1 µM in the assay with EKVX NSCLC; 16.1 µM in the assay on CCRF-CEM leukemia; 12.4 µM with SNB-75 CNS; 6.06 µM with SK-MEL-28 melanoma; 43.8 µM with HOP-62 NSCLC; 24.3 µM with U251 CNS. Further, in the assay on SK-MEL-5 melanoma, the TGI came to 3.48 µM.
Take `CCO/C=C\C12CCCC1NC(c1ccccc1)(c1ccccc1)O2` (stereo unspecified): the TGI in the assay on EKVX NSCLC is greater than 100 µM; in the assay on M14 melanoma it was 66 µM; with CCRF-CEM leukemia, 51 µM; with SNB-75 CNS it was 78.5 µM; with SK-MEL-28 melanoma, greater than 100 µM; in the assay with HOP-62 NSCLC, greater than 100 µM. The TGI was greater than 100 µM in the assay with U251 CNS and 31.1 µM with SK-MEL-5 melanoma.
For the compound `CCC(O)CCCCCCCCCCCCCCC(=O)O` (stereo unspecified), the TGI with EKVX NSCLC, with M14 melanoma, in the assay with CCRF-CEM leukemia, in the assay on SNB-75 CNS, in the assay with SK-MEL-28 melanoma and with HOP-62 NSCLC was greater than 100 µM throughout. Further, the TGI was greater than 100 µM in the assay on U251 CNS, greater than 100 µM in the assay on RPMI-8226 leukemia and 40.6 µM with SK-MEL-5 melanoma.
Turning to `O=C(Nc1ccc(Br)cc1)C(=O)C(C(=O)c1ccc(Cl)c(Cl)c1)C1OC(=O)c2ccccc21` (stereo unspecified), the TGI was greater than 100 µM in the assay with EKVX NSCLC; 47 µM in the assay with LOX IMVI melanoma; 31.9 µM in the assay on M14 melanoma; greater than 100 µM with CCRF-CEM leukemia; 65.9 µM in the assay with SNB-75 CNS; 29.2 µM with SK-MEL-28 melanoma. In addition, the results for the TGI in the assay on HOP-62 NSCLC, in the assay with U251 CNS and with RPMI-8226 leukemia were 32.5 µM, 22.8 µM and greater than 100 µM, respectively.
Regarding `O=C(NC1CCC[C@H]1OC(=O)c1ccccc1)c1ccccc1` (stereo partly specified), the TGI in the assay on EKVX NSCLC was greater than 100 µM; in the assay on M14 melanoma, greater than 100 µM; with CCRF-CEM leukemia, greater than 100 µM; with SNB-75 CNS it was 98.9 µM; with SK-MEL-28 melanoma, greater than 100 µM; in the assay with U251 CNS it was greater than 100 µM. Besides, the TGI in the assay on SK-MEL-5 melanoma is greater than 100 µM.
With `CCN1CCN(C(=O)[C@]23CC[C@@H](C)[C@H](C)[C@@H]2C2=CC[C@@H]4[C@@]5(C)CCC(=O)C(C)(C)[C@@H]5CC[C@@]4(C)[C@]2(C)CC3)CC1`, the GI50 in the assay on EKVX NSCLC was 0.916 µM; in the assay on LOX IMVI melanoma, 0.821 µM; with M14 melanoma, 0.794 µM; in the assay with CCRF-CEM leukemia, 0.976 µM; in the assay on SNB-75 CNS it was 1.03 µM; with SK-MEL-28 melanoma it was 0.889 µM. Further, the GI50 was 1.38 µM in the assay with HOP-62 NSCLC, 0.854 µM with U251 CNS and 0.888 µM in the assay with SK-MEL-5 melanoma. Moreover, the TGI stood at 2.42 µM in the assay with EKVX NSCLC; 1.52 µM with LOX IMVI melanoma; 1.61 µM with M14 melanoma; 2.74 µM in the assay with CCRF-CEM leukemia; 3.82 µM with SNB-75 CNS; 1.7 µM in the assay with SK-MEL-28 melanoma. In addition, the TGI with HOP-62 NSCLC amounted to 3.09 µM; in the assay on U251 CNS it was 1.85 µM; with SK-MEL-5 melanoma, 1.6 µM.
For the compound `CN(C(=O)C(C)(C)C)c1ccccc1I(=O)=O`, the GI50 with EKVX NSCLC is greater than 100 µM; with LOX IMVI melanoma it was greater than 100 µM; with CCRF-CEM leukemia, 8.62 µM; in the assay with SNB-75 CNS, greater than 100 µM; in the assay with SK-MEL-28 melanoma it was 92.5 µM; in the assay on U251 CNS, 89.1 µM. The GI50 in the assay with RPMI-8226 leukemia was 18.8 µM; in the assay on SK-MEL-5 melanoma it was 74.1 µM. Besides, the TGI is greater than 100 µM with EKVX NSCLC; greater than 100 µM in the assay with LOX IMVI melanoma; 31.6 µM in the assay on CCRF-CEM leukemia; greater than 100 µM in the assay on SNB-75 CNS; greater than 100 µM in the assay with SK-MEL-28 melanoma; greater than 100 µM in the assay on U251 CNS. For the same compound, the figures for the TGI in the assay with RPMI-8226 leukemia and in the assay with SK-MEL-5 melanoma were 66 µM and greater than 100 µM, respectively.
With `CC(=O)C(CN1C(=O)c2ccccc2C1=O)C(C)=O`, the TGI with EKVX NSCLC, in the assay with M14 melanoma, with SNB-75 CNS, in the assay on SK-MEL-28 melanoma, with HOP-62 NSCLC and in the assay with U251 CNS was greater than 100 µM in each case. Besides, in the assay with SK-MEL-5 melanoma, the TGI was greater than 100 µM.
For the compound `O=C(Nc1ccc(Cl)c(Cl)c1)c1ccc(NC2=C(Cl)C(=O)N(Cc3ccccc3)C2=O)cc1`, the GI50 with EKVX NSCLC is 23.3 µM; in the assay with M14 melanoma it was 17.1 µM; in the assay on CCRF-CEM leukemia it was 2.3 µM; with SNB-75 CNS, 16.1 µM; in the assay with SK-MEL-28 melanoma it was 21.2 µM; in the assay with HOP-62 NSCLC, 17.4 µM. Further, the figures for the GI50 in the assay with RPMI-8226 leukemia and in the assay on SK-MEL-5 melanoma were 2.02 µM and 5.02 µM, respectively. Moreover, the TGI worked out at 48.6 µM in the assay with EKVX NSCLC; 32.9 µM with M14 melanoma; 7.79 µM in the assay on CCRF-CEM leukemia; 56.4 µM in the assay with SNB-75 CNS; 63.5 µM in the assay on SK-MEL-28 melanoma; 31.3 µM in the assay on HOP-62 NSCLC. In addition, the figures for the TGI in the assay on RPMI-8226 leukemia and in the assay on SK-MEL-5 melanoma were 4.29 µM and 17.9 µM, respectively.
For the compound `C=CC1=C(C)C(/C=c2\[nH]/c(=C/c3[nH]c(CC4NC(=O)C(C)/C4=C\C)c(C)c3CCC(=O)O)c(CC(=O)O)c2C)=NC1=O` (stereo unspecified), the TGI in the assay with EKVX NSCLC, in the assay on LOX IMVI melanoma, with M14 melanoma, in the assay on CCRF-CEM leukemia, with SNB-75 CNS and with SK-MEL-28 melanoma was greater than 100 µM throughout. Also, the TGI in the assay with HOP-62 NSCLC and in the assay with U251 CNS was greater than 100 µM each time.
For the compound `CC1C(c2ccccc2)N(C)C(c2ccccc2)C(C)C1(O)c1ccccc1` (stereo unspecified), the TGI in the assay on EKVX NSCLC, with LOX IMVI melanoma, in the assay on M14 melanoma, in the assay on CCRF-CEM leukemia, in the assay on SNB-75 CNS and with SK-MEL-28 melanoma was greater than 100 µM each time. The TGI with HOP-62 NSCLC, in the assay with U251 CNS and in the assay with SK-MEL-5 melanoma was greater than 100 µM in each case.

The record behind these values is PubChem BioAssay (NCI).
